# Test system: rats
# Test: Behavioural sensitization to amphetamine (motor hyperactivity measured by actimetry)
# Conditions: amphetamine 0.5 mg/kg IP, ginkgolide A 5 mg/kg per day oral
compound,measurement,value
C[C@@H]1C(=O)O[C@H]2C[C@@]34[C@H]5C[C@@H](C(C)(C)C)[C@]36[C@@H](OC(=O)[C@@H]6O)O[C@@]4(C(=O)O5)[C@]21O [ginkgolide A],behavioural sensitization to amphetamine,reduced
